Numbers after ± are expanded uncertainties.
Details: 101.33 kPa, Liquid

CCCCn1cc[n+](C)c1.COS(=O)(=O)[O-] [1-butyl-3-methylimidazolium methyl sulfate]
Details	mass density [kg/m3]
290.95 K	1214.9 ± 2.2
292.95 K	1213.5 ± 2.2
294.95 K	1212.1 ± 2.2
297 K	1210.7 ± 2.2
299 K	1209.4 ± 2.2
301 K	1208 ± 2.2
303 K	1206.7 ± 2.2
305 K	1205.3 ± 2.2
307.05 K	1204 ± 2.2
